According to patent publication US20120128654A1, “Allantoin Administration for the Treatment of Neurodegenerative Disease and Neurotrauma” (UNIVERSITY OF CINCINNATI, priority 2009, published 2012):
Entries after “also recorded” stand apart in the source; their conditions may differ.

Experiments:
[1] = test system: 6-OHDA induced forelimb akinesia; assay: Cylinder testing for forelimb akinesia after intrastriatal 6-OHDA; type: in vivo, Sprague Dawley rats; conditions: cylinder test, s.c. pellets implanted 3 days prior to intrastriatal 6-OHDA, four and six weeks post lesion, vs control
Source text: (§1) Continuous s.c. delivery of INO, KO and ALL was achieved by implanting matrix-driven pellets into the s.c. space. Animals were anesthetized with isofluorane and prepared for surgery using sterile procedures. A small incision was made posterior to the scapula and the pellet was placed in the subscapular space contralateral to the incision. This placement technique prevents migration of the pellet towards the incision, thereby reducing the incidents of rejection. Finally, the incision was closed using aseptic procedures. To determine the roles of UA and allantoin in inosine-mediated neuroprotection, animals were treated with the urate oxidase inhibitor KO. This approach has been widely used to prevent the enzymatic metabolism of UA to allantoin in other rodent models of disease.
Rats were anesthetized prior to surgery with Equi-Thesin (0.3 ml/100 g body weight i.p.; chloral hydrate 42.5 mg/ml+sodium pentobarbital 9.72 mg/ml), their heads shaved, and then they were placed in a stereotaxic frame. Their skin was swabbed with Betadyne followed by 70% ETOH. The scalp was then opened to expose the skull. Two 1 mm holes were drilled into the skull and rats were injected in two sites in the striatum with 6-OHDA (MP Biomedicals, Solon, Ohio; 5 μg/μl 6-OHDA in 0.2% ascorbic acid, 0.9% saline solution). […]
Non-drugged, spontaneous use of the forepaws was measured in rats as described by Schallert (Schallert, T., Behavioral tests for preclinical intervention assessment, NeuroRx 3:497-504 (2006)) prior to pellet and intrastriatal 6-OHDA and at both four weeks and six weeks after 6-OHDA. […] Videotapes were analyzed by a rater blinded to treatment. The number of times the rat used its left, right, or both paws for weight bearing in a given trial was determined and noted. […]
In the first experiment, rats were divided into four different groups INO (n=6), INO/potassium oxonate (KO blocks conversion of UA to ALL) (n=6), ALL (n=6), and sham pellet implantation. […] In experiment 1, rats were assessed for forelimb akinesia prior to, and […] and 6 weeks after intrastriatal 6-OHDA infusion. […]

[2] = Plasma purine levels following subcutaneous purine and KO pellet administration; type: in vivo, Sprague Dawley rats; conditions: rats, four days following pellet implantation; for plasma allantoin levels: matrix-driven s.c. pellets, vs control
Source text: as §1
For HPLC analysis of plasma inosine, hypoxanthine, xanthine and UA, an antioxidant solution was added to an equal volume of plasma and samples were centrifuged at 14,000 g for 20 minutes at 4° C. The supernatant was collected for HPLC analysis. Samples were separated on a Hypersil ODS column (Thermo-Fisher Scientific, Waltham, Mass.). Compounds were detected using a Photodiode Array Detector attached to a Waters 2695 Solvent Delivery System under the following conditions: the mobile phase consisted of 0.5% KH2PO4 at a pH of 4.6. Unknown samples were quantified against a 6-point standard curve with a minimum r^2 of 0.97. Quality control samples were interspersed with each run to ensure HPLC calibration. Data are expressed in μg/ml.
For plasma analysis of allantoin venous blood was obtained from the right ventricle (rat) and collected from repeated blood draws (African green monkey). Blood was immediately centrifuged at 10,500 rpms (this needs to be in G) for 5 minutes. Supernatant was then removed and analyzed for allantoin. Enzymatic detection of allantoin was performed as previously described with the exception of reaction volumes being adjusted to accommodate the use of a 96 well microtiter plate (Muratsubaki et al., Enzymatic assay of allantoin in serum using allantoinase and allantoate amidohydrolase, Anal. Biochem. 359:161-166 (2006)). […] Following a 15 minute incubation, absorbance was read on a spectrometer at 340 nm. […] Following a 10 minute incubation absorbance was once again measured at 340 nm. The final absorbance was subtracted from the absorbance following the addition of allantoinase. […]
To determine the impact of peripheral administration of purines on plasma purine levels, animals were divided into 5 groups INO (n=12), INO/KO (n=12), ALL (n=12), KO (n=12), and sham pellet implantation. […] Plasma ALL levels were determined enzymatically.

| SMILES | forelimb akinesia [1] | plasma allantoin levels [2] | plasma allantoin levels ([2]; listed as Allantoin) | forelimb akinesia ([1]; listed as Inosine) | plasma levels of any other purines ([2]; s.c. pellets) |
| --- | --- | --- | --- | --- | --- |
| NC(=O)NC1NC(=O)NC1=O (stereo not shown) [allantoin] | reduced at four and six weeks post-lesion; also recorded: significantly attenuated | increase in plasma allantoin similar to what was seen in the inosine only group | significantly increased | – | – |
| OC[C@H]1O[C@@H](n2cnc3c(O)ncnc32)[C@H](O)[C@@H]1O [inosine] | significantly attenuated | significantly increased | – | significantly ameliorated forelimb akinesia six weeks post lesion | without affecting |
